Literature values in the CATMoS acute toxicity set (Mansouri et al. 2021).
“And” between values parts separate entries of the source, which are not always exact repeats. Identical values can stand only once.

Test: rat acute oral toxicity
Conditions: in vivo

SMILES	LD50
C(=N\C(/N=C/c1ccco1)c1ccco1)/c1ccco1	400 mg/kg
Cc1cc(Cl)cc2sc(-c3sc4cc(Cl)cc(C)c4c3OS(=O)(=O)O)c(OS(=O)(=O)O)c12	4360 mg/kg
C=CCOC(=O)CCC1CCCCC1	585 mg/kg
COc1cc(S(C)=O)ccc1-c1nc2ccncc2[nH]1 (stereo unspecified)	132 mg/kg
ClCC[N+]1(CCCCCC[N+]2(CCCl)CCCO2)CCCO1 (stereo unspecified)	30 mg/kg
FC(F)(F)c1ccccc1	15000 mg/kg
CN1C(=O)CCc2cc(C(=O)CCN3CCN(c4ccccc4)CC3)ccc21	500 mg/kg
CCCN(CCC)c1c([N+](=O)[O-])cc(C(C)=O)cc1[N+](=O)[O-]	750 mg/kg
Cn1cc(OCC(O)CNC(C)(C)C)c2ccccc2c1=O (stereo unspecified)	145 mg/kg
COP(=O)(OC)OC(Cl)C(Cl)(Cl)Cl (stereo unspecified)	14 mg/kg
Cc1cc(C)cc(Cc2ccccc2)c1	2330 mg/kg
Cc1ncc(CS)c(CS)c1O	549 mg/kg
CC(C)(Oc1ccc(C2CCCc3ccccc32)cc1)C(=O)O (stereo unspecified)	900 mg/kg
Oc1c(Cl)cc(Cl)c(Cl)c1Cl	140 mg/kg
CC[C@@]1(O)C[C@H](O[C@H]2C[C@H](N(C)C)[C@H](O[C@H]3C[C@H](O)[C@H](O[C@H]4CCC(=O)[C@H](C)O4)[C@H](C)O3)[C@H](C)O2)c2c(cc3c(c2O)C(=O)c2c(O)cccc2C3=O)[C@H]1C(=O)OC	58.6 mg/kg
CN1CCC(=C2c3ccccc3Sc3ccccc32)CC1	1190 mg/kg and 550 mg/kg
C=CCOc1ccc(C2=C(c3ccccc3)C(C)(C)Oc3cc(OC)ccc32)cc1	500 mg/kg
CC(C(=O)O)c1ccc2c(c1)Cc1cccnc1O2 (stereo unspecified)	59.5 mg/kg
NCCOC(=O)C=CC(=O)OCCN	4920 mg/kg
CCCC=C1OC(=O)c2ccccc21	1850 mg/kg
Oc1ccc2ccccc2c1	1960 mg/kg and 2120 mg/kg
COc1ccc(OCCCN(C)CCOc2ccc3c(c2)OCO3)c(C2Sc3ccccc3N(C)C2=O)c1 (stereo unspecified)	206 mg/kg
CC(Cl)CCl (stereo unspecified)	1950 mg/kg
BrC1(Br)C2CCC1CC2	210 mg/kg

SMILES	LD50
OC[C@@H](O)[C@@H](O)[C@H](O)[C@H](O)CO	13500 mg/kg
Cc1cc(C)c(S(=O)(=O)O)c(C)c1Nc1ccc(Nc2c(C)cc(C)c(S(=O)(=O)O)c2C)c2c1C(=O)c1ccccc1C2=O	3350 mg/kg
CC(C)c1ccc(-c2ccccc2)cc1	8500 mg/kg
CCN(CC)c1ccc(N)c(C)c1	200 mg/kg
COc1ccc([N+](=O)[O-])cc1Cl	1180 mg/kg
Nc1ccc(N(c2ccccc2)c2ccc(N)cc2)cc1	330 mg/kg
O=C(O)CN(CCN(CC(=O)O)CC(=O)O)CCN(CC(=O)O)CC(=O)O	4550 mg/kg
Nc1cccc2cc(S(=O)(=O)O)ccc12	14200 mg/kg
CCCCNCC(O)COc1ccc(-c2c(-c3ccccc3)c(=O)oc3cc(OC)ccc23)cc1 (stereo unspecified)	500 mg/kg
CC(=O)NC(=O)c1ccccc1O	1800 mg/kg
NCCOCNc1ccccc1	0.625 mg/kg
ON=CC(O)(C#Cc1ccccc1)c1ccccc1 (stereo unspecified)	8750 mg/kg
CC(C)(O)CC(C)(O)c1ccc(Cl)cc1 (stereo unspecified)	1140 mg/kg
COP(=O)(CCC(=O)NCO)OC	13000 mg/kg
Cc1ccc(O)c(C2CCCCC2)c1	1870 mg/kg
CCB(CC)CC	235 mg/kg
Cc1cccc(NC(=S)N(C)C)c1	2200 mg/kg
FC(F)(F)C(F)(F)C(F)(F)C(F)(F)C(F)(F)C(F)(F)CCI	3870 mg/kg
c1ccc(NC[Si]23OCCN(CCO2)CCO3)cc1	0.328 mg/kg
CC=CC(C)OC (stereo unspecified)	1210 mg/kg
FC(F)(F)c1cccc(Nc2ccccc2-c2nn[nH]n2)c1	455 mg/kg
N#CCc1ccccc1	270 mg/kg
CCOC(=O)C1=CN(CC)C2CCCC(C)N2C1=O (stereo unspecified)	746 mg/kg
C/C=C/C(=O)OCC	3000 mg/kg

SMILES	LD50
CCCCC(CC)COC(=O)C(CC)CCCC (stereo unspecified)	27000 mg/kg
CCC(C(=O)c1ccc2[nH]c(=O)ccc2c1)N1CCN(c2cccc(Cl)c2)CC1 (stereo unspecified)	500 mg/kg
O=C(CCl)CC(=O)Nc1ccccc1	1820 mg/kg
CCCOCCOC(C)=O	9460 mg/kg
CCCCCCCCCCCC(=O)OCC(O)CO (stereo unspecified)	52900 mg/kg
Cc1cc(Cl)cc(O)c1O	1410 mg/kg
CC[N+](CC)(CC)Cc1ccccc1	2220 mg/kg
CCOP(=O)(OCC)Sc1c(Cl)c(Cl)c(Cl)c(Cl)c1Cl	925 mg/kg
Cc1cc(Cl)ccc1N=CN(C)C	160 mg/kg
CC=CC(C)=O	3200 mg/kg
CC(C)CC(=O)OCCc1ccccc1	6220 mg/kg
C/N=N/Nc1ccc([N+](=O)[O-])cc1	468 mg/kg
CCN(CC)CCOC(=O)C(O)(c1ccccc1)c1ccccc1	184 mg/kg
COCC(C)N(C(=O)CCl)c1c(C)csc1C (stereo unspecified)	397 mg/kg
NC(=O)Cc1c([O-])on[n+]1Cc1ccccc1	4450 mg/kg
CC1CN(CCO)CC1C (stereo unspecified)	1230 mg/kg
COC(=O)c1ccccc1OC	3800 mg/kg
COP(=S)(OC)SCC(=O)O	2500 mg/kg
CC(C)C(=O)OCC(C)(C)C(O)C(C)C (stereo unspecified)	3200 mg/kg
Cc1cc(Cl)ccc1N	1060 mg/kg
CC(=O)CCCCCCCC(=O)O	3100 mg/kg
C=CCC(N)Cc1ccccc1 (stereo unspecified)	680 mg/kg
C=C(C#N)C(=O)OC	1600 mg/kg
CN1CCN(CCC(=O)NN=Cc2ccc([N+](=O)[O-])o2)CC1	300 mg/kg

SMILES	LD50
COP(=S)(OC)SC(C)N1CC(=O)C(=O)C1 (stereo unspecified)	5.6 mg/kg
COP(=O)(OC)OC(=CCl)c1cc(Cl)c(Cl)cc1Cl	4000 mg/kg
Cc1cccc(Nc2ccccc2C(=O)O)c1C	740 mg/kg
FC(F)(F)c1ccc(Cl)cc1Cl	2150 mg/kg
CCOP(=S)(OCC)SCCS(=O)(=O)CC	7.5 mg/kg
CCOc1ccc([N+](=O)[O-])cc1CNCCO	25 mg/kg
CC1(C(=O)O)C2CCC(O2)C1C(=O)O (stereo unspecified)	50 mg/kg
CCCC(C(=O)OCCN(CC)CC)(c1ccccc1)c1ccccc1	2140 mg/kg
Nc1ccc(C(F)(F)F)cc1	128 mg/kg
CC(C)(C)c1cc(CCC(=O)OCCSCCOC(=O)CCc2cc(C(C)(C)C)c(O)c(C(C)(C)C)c2)cc(C(C)(C)C)c1O	6300 mg/kg
N#CCCC[Si](Cl)(Cl)Cl	2830 mg/kg
CCO[Si](CC)(OCC)OCC	14000 mg/kg
Cc1ccc(N)cc1O	3600 mg/kg
O=C(c1cc(O)c(O)c(O)c1)c1ccc(O)c(O)c1O	1420 mg/kg
NC(=O)NC(=O)Cc1ccccc1	1600 mg/kg
CC(CC(=O)OC(C)(C)C)=NNc1ccc(N2CCOCC2)nn1	970 mg/kg
Cc1cccc(I)c1	2300 mg/kg
CC(SCC(=O)O)c1ccc2c(c1)Cc1ccccc1-2 (stereo unspecified)	1900 mg/kg
Oc1ccc(N=Cc2ccccc2)cc1	3500 mg/kg
ClCCOCOCCCl	65 mg/kg
O=C/C=C/O	824 mg/kg
O=C(Nc1nc(C(F)(F)F)c(Cl)s1)c1cc(C(F)(F)F)cc(C(F)(F)F)c1	69 mg/kg
C=C(C)C(=O)OCCC#N	7330 mg/kg
C=C(C)C(=O)Nc1ccc(Cl)c(Cl)c1	1800 mg/kg

SMILES	LD50
CN(C)CC/C=C1\c2ccccc2COc2ccccc21	147 mg/kg
COc1cc2c(cc1OC)C(CCc1ccc(Cl)cc1)N(C)CC2 (stereo unspecified)	400 mg/kg
C=CCN1CCc2nc(N)sc2CC1	403 mg/kg
Oc1cc2nc(C(F)(F)F)[nH]c2cc1Cl	55.5 mg/kg
CCP(=S)(CC)Oc1cc(Cl)c(Cl)cc1Cl	100 mg/kg
CC(=O)Nc1ccc2c(c1)OCO2	1000 mg/kg
CCC(CC)(CO)CO	850 mg/kg
O=C(O)Cc1ccc2c(c1)OCc1ccccc1C2=O	110 mg/kg
CO[C@H]1CC[C@H](O[C@@]2(C)[C@H](C[C@@H]3C[C@@H](OC)[C@@H](C)[C@]4(O3)O[C@](C)(C3CC[C@@H]([C@H]5CC[C@H](C6O[C@](C)(O)[C@H](C)C[C@@H]6C)O5)O3)[C@H](OC)[C@H]4C)O[C@](O)([C@@H](C)C(=O)O)[C@H](C)[C@@H]2OC)O[C@@H]1C (stereo partly specified)	10 mg/kg
CCSC(=O)COc1ccc(Cl)cc1C	790 mg/kg
Cc1ccc(Cl)cc1N	464 mg/kg
CC(C)=CC(=O)O[C@H]1CC[C@]2(C=O)[C@H]3CC[C@]4(C)[C@@H](c5ccc(=O)oc5)CC[C@]4(O)[C@@H]3CC[C@]2(O)C1	1.74 mg/kg
CCN(CC)C(=O)[C@]1(c2ccccc2)C[C@@H]1CN	213 mg/kg
O=[n+]1c2ccccc2n([O-])c2ccc3ccccc3c21	4620 mg/kg
CN1C(C(=O)Nc2nccs2)=C(O)c2ccccc2S1(=O)=O	136 mg/kg
OC1(c2ccc(Cl)c(Cl)c2)c2ccccc2C2=NCCN21 (stereo unspecified)	353 mg/kg
COP(=O)(OC)SC(CC(=O)OC(C)C)C(=O)OC(C)C (stereo unspecified)	120 mg/kg
Clc1ccc(S/N=N/c2cc(Cl)c(Cl)cc2Cl)cc1	4000 mg/kg
CCC1C(C)=NN=C(c2ccc(OC)c(OC)c2)c2cc(OC)c(OC)cc21 (stereo unspecified)	825 mg/kg
CCC(C(=O)O)C1(O)CCCCC1 (stereo unspecified)	4820 mg/kg
CCOP(=O)(OCC)SCN1C(=O)c2ccccc2C1=O	11 mg/kg
CCOc1ccc([N+](=O)[O-])cc1CNCCCl	25 mg/kg
O=C1C(CCSc2ccccc2)C(=O)N(c2ccccc2)N1c1ccccc1	450 mg/kg
CN1[C@@H]2CC[C@H]1C[C@@H](OC1c3ccccc3CCc3ccccc31)C2	445 mg/kg

SMILES	LD50
COc1ccc([C@@H]2Sc3ccccc3N(CCN(C)C)C(=O)[C@@H]2OC(C)=O)cc1	560 mg/kg
CCOC(=O)c1c[n+](C)c2n(c1=O)C(C)CCC2 (stereo unspecified)	1500 mg/kg
COc1nc(C)nc(NC(=O)NS(=O)(=O)c2ccccc2CCC(F)(F)F)n1	986 mg/kg
CC1(C)C(=O)N(Cl)C(=O)N1Br	1390 mg/kg
CCC(C)c1ccc(O)cc1 (stereo unspecified)	2450 mg/kg
CC1(C)C2CC=C(CCO)C1C2 (stereo unspecified)	890 mg/kg
O=C(O)Cc1c(-c2ccccc2)c(-c2ccccc2)nn1-c1ccccc1	13 mg/kg
C=C(C)CCl	848 mg/kg
CCOP(=S)(OCC)OC(C)C	1000 mg/kg
CCCCCCCCOC(=O)Oc1ccc([N+](=O)[O-])cc1[N+](=O)[O-]	196 mg/kg
CCOC(=O)C1CC(=O)C(=C(O)C2CC2)C(=O)C1 (stereo unspecified)	4460 mg/kg
Cc1nc(N)nc(N2N=CCC2C)n1 (stereo unspecified)	3200 mg/kg
CC(=O)c1cccc2ccccc12	1560 mg/kg
CCCCCCCCCCCCCO	17200 mg/kg
CCOP(=S)(OCC)SC1CCSC1 (stereo unspecified)	20 mg/kg
CCOC(=O)CSP(=S)(OCC)OCC	1100 mg/kg
CC(=O)O[C@H]1C[C@@H]2CC[C@@H]3[C@H](CC[C@@]4(C)[C@H]3C[C@H]([N+]3(C)CCCCC3)[C@@H]4OC(C)=O)[C@@]2(C)C[C@@H]1N1CCCCC1	455 mg/kg
Clc1nc(C(Cl)Cl)c(Cl)c(Cl)c1Cl	1780 mg/kg
CCCCNc1ccc2c(c1)C(=O)N(CCN(CC)CC)C2=O	580 mg/kg
CCCCCCCCCCCCCCCCCC[N+](C)(C)CC(O)CCl (stereo unspecified)	2590 mg/kg
CCCCOC(=O)n1c(Br)nc(Br)c1Br	44 mg/kg
